Data set [1] can be described thus: solubility in water (stirred 18 hours, filtrate analyzed by HPLC).
Description: (§1) After stirring, supernatant was filtered by a membrane filter (0.45,μm) and a filtate was analyzed by HPLC.
(§2) Colum: Taxil 5μ (4.6×250 mm), made by MetaChem
Solvent: MeOH/H2 O (80/20)
Detector: photodiode detector (230 nm)
Data set [2] can be described thus: stability in aqueous solutions. The data set is classed as physicochemical.
Another data set has as its system tubulin. The experiment in a line: microtubule depolymerization-inhibiting activity (absorbance at 350 nm after adding calcium chloride). Conditions: relative to paclitaxel; 5 μM. Type of data set: biochemical. How it is done:
Next, each of the above-described samples is mixed with tubulin (a main constituting protein of microtubule) and allowed to react at 37° C. for 15 minutes. Absorbance at 350 nm of the reaction solution was measured at 2, 5, 10 and 15 minutes after initiation of the reaction. Also, after the reaction ended, calcium chloride was added and, 5 minutes after this adding, absorbance at 350 nm was again measured. From each measured value was determined relative activity of each sample in the case that polymerization-promoting activity and depolymerization-inhibiting activity were taken as 100, and the results are shown in Table 2.

For data set [3] the following is noted: water, 18 h.
Description: as §1, §2
Solvent: MeOH/H2 O (80/20)
Detector: photodiode detector (230 nm)
The conditions of data set [4]: literature, I. Ringer et al.; cited from earlier work.

SMILES strings stand for the structures. Values after ≈ are worked out from the molar mass of the structure shown.

The solubility is how much of the substance goes into solution per volume. A low value points to little dissolved substance. For `CC(=O)O[C@H]1C(=O)[C@]2(C)[C@@H](OC(=O)COC3O[C@H](CO)[C@@H](O)[C@H](O)[C@H]3O)C[C@H]3OC[C@@]3(OC(C)=O)[C@H]2[C@H](OC(=O)c2ccccc2)[C@]2(O)C[C@H](OC(=O)[C@H](OC(=O)COC3O[C@H](CO)[C@@H](O)[C@H](O)[C@H]3O)[C@@H](NC(=O)c3ccccc3)c3ccccc3)C(C)=C1C2(C)C` (some centres unmarked) [2',7-S-paclitaxel, Diglucosyloxyacetyl-2',7-paclitaxel], the solubility at 18 h in data set [1] was 0.0484 mg/mL (≈ 37.4 µM). For the same compound, in data set [2], the “stability in aqueous solutions” value is “decomposed to paclitaxel in aqueous solutions and unstable in aqueous solutions”.

In data set [1], `CC(=O)O[C@H]1C(=O)[C@@]2(C)[C@H]([C@H](OC(=O)c3ccccc3)[C@]3(O)C[C@H](OC(=O)[C@H](OC(=O)COC4O[C@H](CO)[C@@H](O)[C@H](O)[C@H]4O)[C@@H](NC(=O)c4ccccc4)c4ccccc4)C(C)=C1C3(C)C)[C@]1(OC(C)=O)CO[C@@H]1C[C@@H]2O` (some centres unmarked) [2'-S-paclitaxel, Glucosyloxyacetyl-2'-paclitaxel] returned a solubility at 18 h of 0.0306 mg/mL (≈ 28.5 µM). The “stability in aqueous solutions” value in data set [2] was “decomposed to paclitaxel in aqueous solutions and unstable in aqueous solutions”.

Compound `CC(=O)O[C@H]1C(=O)[C@]2(C)[C@@H](OC(=O)COC3O[C@H](CO)[C@@H](O)[C@H](O)[C@H]3O)C[C@H]3OC[C@@]3(OC(C)=O)[C@H]2[C@H](OC(=O)c2ccccc2)[C@]2(O)C[C@H](OC(=O)[C@H](O)[C@@H](NC(=O)c3ccccc3)c3ccccc3)C(C)=C1C2(C)C` (some centres unmarked) [7-S-paclitaxel, Glucosyloxyacetyl-7-paclitaxel] returned a solubility at 18 h in data set [1] of 0.0147 mg/mL (≈ 13.7 µM). Also, the “depolymerization-inhibiting activity compared with paclitaxel (in words)” value in the data set on tubulin is listed as “more than twice as potent as that of paclitaxel”.

The term Solubility denotes how much of the substance goes into solution per volume. Low readings indicate a poorly soluble substance, high ones a readily soluble substance. As to `CC(=O)O[C@H]1C(=O)[C@@]2(C)[C@H]([C@H](OC(=O)c3ccccc3)[C@]3(O)C[C@H](OC(=O)[C@H](O)[C@@H](NC(=O)c4ccccc4)c4ccccc4)C(C)=C1C3(C)C)[C@]1(OC(C)=O)CO[C@@H]1C[C@@H]2O` [Paclitaxel, paclitaxel], the Solubility in data set [3] came to 0.0004 mg/mL (≈ 0.468 µM).

Consider `CC(=O)O[C@@]12CO[C@@H]1C[C@H](O)[C@@]1(C)C(=O)[C@H](O)C3=C(C)[C@@H](OC(=O)[C@H](O)[C@@H](NC(=O)OC(C)(C)C)c4ccccc4)C[C@@](O)([C@@H](OC(=O)c4ccccc4)[C@H]21)C3(C)C` [docetaxel], for which the “solubility in water relative to paclitaxel” value in data set [4] is 1.3 times.
